Measured values published in patent publication US5846934A, “Pure somatostatin antagonist and methods of use thereof” (American Cyanamid Company, priority 1997, dated 1998).
Positions of bridges follow the written chain, without caps; N, C: chain ends. Non-standard residues stand in square brackets, D forms with d. Residues, ends and D or L forms follow the SMILES beside them. Phe(4-NO2) = N[C@@H](Cc1ccc([N+](=O)[O-])cc1)C(=O)O; 2Nal = N[C@@H](Cc1ccc2ccccc2c1)C(=O)O; Abu = CC[C@H](N)C(=O)O

Key:
[1] = biological target: T1, rat somatostatin receptor subtype 2 (SSTR2) (Rattus norvegicus, UniProt P30680); assay: Yeast assay, somatostatin agonist activity (zone of growth of modified yeast cells); format: cell-based; set-up: key: 1 is minimum agonist activity; 5 is maximum agonist activity; --: When no activity is observed, the result is indicated by a dash; details: rating on a scale of 1-5 from zone of growth; S. cerevisiae LY364 expressing rat SSTR2
T1 construct: expressed in transfected cells; host or cells: Saccharomyces cerevisiae LY364 bearing pJH2 (SSTR2) and pLP82 (G protein)
T1 sequence (P30680 whole entry): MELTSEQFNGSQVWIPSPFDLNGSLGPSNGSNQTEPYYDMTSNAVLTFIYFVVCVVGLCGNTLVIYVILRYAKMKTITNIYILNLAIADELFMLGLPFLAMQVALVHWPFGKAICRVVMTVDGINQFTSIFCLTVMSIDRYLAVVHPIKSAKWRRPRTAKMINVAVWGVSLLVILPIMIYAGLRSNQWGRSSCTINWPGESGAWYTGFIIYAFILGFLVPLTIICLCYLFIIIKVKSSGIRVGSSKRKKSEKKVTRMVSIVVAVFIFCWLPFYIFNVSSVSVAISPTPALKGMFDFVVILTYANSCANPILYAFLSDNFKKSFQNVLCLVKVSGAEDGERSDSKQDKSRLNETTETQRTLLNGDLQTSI
Procedure: (§1) In this evaluation, yeast cells which have been specifically modified to functionally express rat somatostatin receptor subtype 2 (SSTR2) on their cell surfaces are used. S. Cerevisiae LY364 cells are plated in a standard synthetic agar medium which lacks histidine. In the absence of a somatostatin receptor agonist, the auxotrophic (his3) cells are unable to grow. In the presence of somatostatin, or a somatostatin agonist, the expression of an enzyme (His3p: imidazole-glycerol phosphate dehydratase) which is essential for histidine biosynthesis is induced. The cells become competent to produce histidine, resulting in a zone of growing cells around the applied test compound. The zone is measured and the test compound is given an agonist rating on a scale of 1-5 wherein 1 is minimum agonist activity and 5 is maximum agonist activity.
1) Inoculate 2 mL SCD-ura-trp liquid medium in Falcon 2051 tube with a single colony taken from a plate containing LY364 (MATa ura3-52 leu2 his3 trp1 lys2 ade2 far1:: LYS2 fus1:: FUS1-HIS3 gpa1::hisG sst2::.ADE2 bearing the SSTR2 expression plasmid, pJH2, and the G protein expression plasmid, pLP82) cells.
3) Add 1 mL of LY364 culture to 1 liter of agar medium.
8) Incubate plates at 30° C.
Day 5. Begin checking plates for growth around applied compounds.
(§2) Day 7. Growth in response to somatostatin should be readily observable. Rate extent of growth or inhibition of growth according to rating scale described hereinabove.

[2] = biological target: T1, rat somatostatin receptor subtype 2 (SSTR2); assay: Yeast assay, somatostatin antagonist activity (zone of no growth in presence of S-14); format: cell-based; set-up: key: 1 is minimum antagonist activity; 5 is maximum antagonist activity; --: When no activity is observed, the result is indicated by a dash; details: rating on a scale of 1-5 from zone of no growth; 5 μL of 1 mg/mL S-14 added to each plate
Procedure: as §1
To evaluate the somatostatin antagonist activity of a test compound, the above procedure is followed except on day 3, 5 μL of 1 mg/mL of somatostatin, S-14, is added to each plate, before applying the test compound. If the test compound is an antagonist of somatostatin, then a zone of no growth will appear within the cell growth zone. This zone of no growth is measured and the test compound is given an antagonist rating on a scale of 1-5 wherein 1 is minimum antagonist activity and 5 is maximum antagonist activity.
The results are shown in Table I. When no activity is observed, the result is indicated by a dash.
On day 3, add 5 μL 1 mg/mL S-14 to each plate.
as §2

[3] = biological target: T2, SSTR2 (Rattus norvegicus, UniProt P30680); assay: Cyclic AMP accumulation, forskalin stimulated, intact cells; format: cell-based; details: read-out: SSTR^2 % IA (% intrinsic activity)
T2 sequence (P30680 whole entry): as above
Text: Cyclic AMP accumulation assays are used to determine the functional coupling of somatostatin receptors to effectors. All five cloned somatostatin receptors inhibit cyclic AMP accumulation and adenylyl cyclone activity.^1,2,3,4,5 This evaluation measures cyclic AMP accumulation from intact cells using the adrenal binding protein method. Signal transduction by somatostatin is mediated by lowering intracellular c-AMP levels. This functional assay measures the ability of the test compound to inhibit the effect of somatostatin on forskalin stimulated c-AMP levels.
Bovine adrenal gland extracts are prepared according to the method of Brown et al^6 with minor modifications. […]
Somatostatin-mediated inhibition of cyclic AMP accumulation is measured in intact cells co-incubated with the diterpene forskalin (5 μM) which activates adenylyl cyclase directly and stimulates cyclic AMP accumulation in cells. […] The cells are counted and the concentration of cells is adjusted to 50,000/70 μl and incubated 15 minutes at room temperature before starting the assay. […]

[4] = biological target: T2, SSTR2; assay: Competitive binding, displacement of [125I]Tyr11 S-14; set-up: expressed in transfected cells; membrane protein
Procedure: In this evaluation the concentration of test compound required to displace 50% of somatostatin, SRIF, from the SRIF receptor subtypes expressed in mammalian cells is measured, i.e., the concentration required to inhibit 50% of [^125 I] Tyr^11 S-14 (Amersham) (IC50) from binding to the SRIF receptor subtypes.
Radiolabeled SRIF is mixed with pituitary cells, the test compound is added, the mixture is incubated and the radioactivity is measured as compared to control. Reduced radioactivity indicates successful competitive binding of the test compound to the pituitary cell receptor. The concentration of the test compound in nanomolar units required to displace 50% of SRIF from the pituitary cell receptor is calculated and reported in Table II as the IC50 value. Also calculated is the inhibitory constant, Ki.
Tyr^11 S-14 (150,000 cpm at 2000 Ci/mmole, 250 pM final concentration). The binding reaction is initiated by adding 2-60 μg of membrane protein in a 170 μL volume. Final reaction volume is 200 μl/well. All incubations are carried out at room temperature for 2 hours. Free radioligand is separated from bound ligand by rapid filtration through a glass fiber filter (IH-201-HA) using an Inotech cell harvester. The filter is then washed several times with cold (4° C.) binding buffer lacking BSA and protease inhibitors prior to counting in an LKB gamma master counter (78% efficiency). Whatman GFC filters presoaked in 0.3% polyethylenimine (to decrease background) are used.
The IC50 values and Ki values are calculated using the well-known methods described by Y. Cheng and W. H. Prusoff, Biochem. Pharmacol. 22, 3099-3108 (1973), incorporated herein by reference thereto.

Yeast Assay Agonist [1]	Yeast Assay Antagonist [2]	Emax [3]	Ki ([4]; calculated by method of Cheng and Prusoff, read-out: SSTR2 Binding Affinity Ki)	IC50 ([4]; displacement of [125I]Tyr11 S-14, 250 pM, room temperature, 2 hours, read-out: SSTR2 Binding Affinity IC50)	Structure (SMILES)
--	3	7%			NCCCC[C@@H]1NC(=O)[C@@H](Cc2c[nH]c3ccccc23)NC(=O)[C@H](Cc2ccc(O)cc2)NC(=O)[C@H](NC(=O)[C@@H](N)Cc2ccc([N+](=O)[O-])cc2)CSSC[C@@H](C(=O)N[C@@H](Cc2ccc3ccccc3c2)C(N)=O)NC(=O)[C@H](CO)NC1=O [4-NO2 Phe Tyr Lys Ser Nal(2)] (H-[Phe(4-NO2)][dC]Y[dW]KSC[2Nal]-NH2; disulfide 2-7 (inferred); N-terminus and C-terminus assumed)
--	5	-12%			C[C@@H](O)[C@@H]1NC(=O)[C@H](CCCCN)NC(=O)[C@@H](Cc2c[nH]c3ccccc23)NC(=O)[C@H](Cc2ccc(O)cc2)NC(=O)[C@H](NC(=O)[C@@H](N)Cc2ccc(I)cc2)CSSC[C@@H](C(=O)N[C@@H](Cc2ccc(O)cc2)C(N)=O)NC1=O [4-IPhe Tyr Lys Thr Tyr]
--	3		1.78 nM	4 nM	CC[C@@H]1NC(=O)[C@H](CCCCN)NC(=O)[C@@H](Cc2c[nH]c3ccccc23)NC(=O)[C@H](Cc2ccc(O)cc2)NC(=O)[C@H](NC(=O)[C@@H](N)Cc2ccc([N+](=O)[O-])cc2)CSSC[C@@H](C(=O)N[C@@H](Cc2ccc(O)cc2)C(N)=O)NC1=O [4-NO2 Phe Tyr Lys Abu Tyr] (H-[Phe(4-NO2)][dC]Y[dW]K[Abu]CY-NH2; disulfide 2-7)
